Paper PMC3791473 (Nature Communications, 2013)
Peptide text beside a SMILES is read from it.

Molecular target: T1, Ptr2p (Saccharomyces cerevisiae, UniProt P32901)
T1 sequence (P32901 1-601): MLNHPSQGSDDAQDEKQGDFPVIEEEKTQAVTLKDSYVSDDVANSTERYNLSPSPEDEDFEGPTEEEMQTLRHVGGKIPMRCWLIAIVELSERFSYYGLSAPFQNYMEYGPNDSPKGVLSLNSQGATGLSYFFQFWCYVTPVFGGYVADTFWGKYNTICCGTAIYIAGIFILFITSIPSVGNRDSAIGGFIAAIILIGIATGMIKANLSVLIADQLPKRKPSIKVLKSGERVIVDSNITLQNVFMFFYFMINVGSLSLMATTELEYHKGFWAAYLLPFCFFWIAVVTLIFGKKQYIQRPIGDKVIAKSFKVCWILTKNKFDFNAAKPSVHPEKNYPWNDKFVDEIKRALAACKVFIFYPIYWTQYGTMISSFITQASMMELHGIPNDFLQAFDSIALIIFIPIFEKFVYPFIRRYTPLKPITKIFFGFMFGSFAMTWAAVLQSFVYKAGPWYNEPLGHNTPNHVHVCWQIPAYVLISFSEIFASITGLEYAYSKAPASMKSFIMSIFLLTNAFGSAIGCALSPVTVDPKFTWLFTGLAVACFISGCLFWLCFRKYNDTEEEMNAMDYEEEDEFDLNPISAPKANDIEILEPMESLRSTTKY
Assay: Fluorescence-based competitive uptake
Assay type: cell-based

## NCC(=O)NCC(=O)NCC(=O)O [Gly–Gly–Gly] (H-Gly-Gly-Gly-OH; N-terminus and C-terminus assumed)
  Ki: 48000 µM

## C[C@H](N)C(=O)N[C@@H](C)C(=O)O [N-terminal A, C-terminal A, Ala–Ala] (H-Ala-Ala-OH; N-terminus and C-terminus assumed)
  Ki: 400 µM

## CC(C)C[C@H](NC(=O)[C@H](C)N)C(=O)O [N-terminal A, C-terminal L, Ala–Leu] (H-Ala-Leu-OH; N-terminus and C-terminus assumed)
  Ki: 310 µM

## CC(C)C[C@H](NC(=O)CN)C(=O)O [N-terminal G, C-terminal L, Gly-Leu]
  Ki: 600 µM

## CC(C)C[C@H](NC(=O)[C@@H](N)Cc1c[nH]cn1)C(=O)O [N-terminal H, C-terminal L, His–Leu] (H-His-Leu-OH; N-terminus and C-terminus assumed)
  Ki: 50 µM

## CC(C)C[C@H](N)C(=O)NCC(=O)O [N-terminal L, C-terminal G, Leu-Gly] (H-Leu-Gly-OH; N-terminus and C-terminus assumed)
  Ki: 360 µM

## CC(C)C[C@H](N)C(=O)N[C@@H](Cc1c[nH]cn1)C(=O)O [N-terminal L, C-terminal H, Leu-His] (H-Leu-His-OH; N-terminus and C-terminus assumed)
  Ki: 130 µM

## N[C@@H](Cc1c[nH]c2ccccc12)C(=O)N[C@@H](Cc1ccccc1)C(=O)O [N-terminal W, C-terminal F, Trp-Phe] (H-Trp-Phe-OH)
  Ki: 20 µM

## carnosine [reference compound]
SC-Ptr2p cells
  competitive inhibition of β-Ala–Lys (AMCA) uptake: inhibited

## β-Ala–Lys (AMCA) [reference compound]
read-out: Km of β-Ala–Lys (AMCA) uptake, SC-Ptr2p cells, (±s.d.)
  Km: 160 µM
